Experimental findings from PubChem BioAssay AID179 (DTP/NCI, 2004) are described below.

The experiment has as its system CEM cells HIV-1 protection, formazan growth assay. Put plainly: NCI AIDS Antiviral Assay. As to conditions: for IC50: measured here: growth of uninfected CEM cells. The essentials:
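Protection of CEM cells against HIV-1 measured as cell growth via soluble formazan read-out, with five concentrations tested on both infected and uninfected cells; failure to protect may reflect toxicity.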

The structures appear in SMILES notation. Calls of active or inactive are those of the source.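 The calls were made as follows: active = compounds giving half or more protection of infected cells from virus-caused growth loss, again on retest; inactive = the rest.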 Where a SMILES comes first, the peptide text is derived from it. The star is where a group is joined. Fmoc = O=C(OCC1c2ccccc2-c2ccccc21)*; Boc = CC(C)(C)OC(=O)* Where only a bound is given, the exact number is not on record here.

For `Cc1cccc2c1Oc1cc(Cl)ccc1C2NC(=O)CCN1CCN(CCO)CC1` (stereo not drawn), the EC50 was above 200 µM and the IC50 stood at 13.5 µM. `N/C(=N/O)c1nsnc1/C(N)=N\O`: the EC50 was above 200 µM and the half-inhibitory concentration (IC50) was above 200 µM. Regarding `CC(CC[C@@]1(C)C(=O)CCC2O[C@]21C)[C@H]1C[C@@H](c2ccoc2)OC1=O` (stereo partly drawn), the EC50 is above 200 µM and the IC50 came out at 34.7 µM. Regarding `COC(=O)C1OC(OC2=C(c3ccc(OC)cc3)C(=O)C(OC3OC(C(=O)OC)C(OC(C)=O)C(OC(C)=O)C3OC(C)=O)=C(c3ccc(OC)cc3)C2=O)C(OC(C)=O)C(OC(C)=O)C1OC(C)=O` (stereo not drawn), the EC50 is above 28.8 µM and the IC50 turned out to be 4.57 µM.

In the case of `Cn1c2ccccc2c2c3c(ccc21)C(=O)N(c1ccccc1)C3=O`, the EC50 was above 93.3 µM and the half-maximal inhibitory concentration (IC50) worked out at 60.3 µM. Consider `C=C1C(=O)O[C@H]2[C@H]3O[C@@H](C[C@@H]12)[C@](C)(O)CC[C@@H]1O[C@@]1(C)CCC[C@H]3C`, for which the EC50 was above 200 µM and the IC50 came to 8.13 µM. In the case of `C=CC[P@]1(=O)O[C@H](c2ccccc2)[C@H](C)N1C`, the result was inactive.

On to `O=C(/C=C/c1cccc2ccccc12)c1ccccc1Cl`, for which the EC50 was above 12.9 µM and the half-inhibitory concentration (IC50) was found to be 11 µM. Regarding `CCC(C)C(NC(=O)CNC(=O)CN)C(=O)NCC(=O)NCC(=O)O` (stereo not drawn) (HELM PEPTIDE1{G.G.[CCC(C)C(N[*:1])C(=O)[*:2]].G.G}$$$$V2.0), the EC50 is above 69.2 µM and the IC50 was above 69.2 µM. For `Cn1nc(-c2ccccc2)c(C(=O)/C=C/c2ccc(F)cc2)c(N2CCCC2)c1=O`, the EC50 is 26.3 µM and the IC50 was 36.3 µM. With `CCC(=O)NCC1(c2c[nH]c3ccccc23)SCCS1`, the outcome was inactive. As to `C/C(=N\NC(=S)N1CCC1)c1ccccn1`, the EC50 was above 0.2 µM and the half-maximal inhibitory concentration (IC50) is 0.00525 µM. On the same counts, the results for `O=P(O)(O)CN1CCNCCN(CP(=O)(O)O)CC1` are above 100 µM and 70.8 µM. On the same counts, the results for `N#C/C=C/c1cccc(Br)c1` are above 47.9 µM and above 47.9 µM. Turning to `CCN(CC)CCN(C)CC(C)(C)C(=O)/C=C/c1ccccc1`, the result was inactive. In the case of `CSc1ccc(C2OC(=O)c3ccccc32)c2ccccc12` (stereo not drawn), the EC50 is above 17 µM and the 50% inhibitory concentration (IC50) was above 17 µM. `COc1ccc2c(O)c(-c3ccc(OC)c(OC)c3)c(=O)oc2c1`: the result was inactive. As for `COc1ccc(C[C@H]2COC(=O)[C@@H]2Cc2ccc3c(c2)OCO3)cc1OC`, the EC50 was above 200 µM and the half-inhibitory concentration (IC50) turned out to be 19.1 µM. On to `CC(C)=CCC1=C(O)C(=O)C(CC=C(C)C)=C(O)C1=O`, for which the EC50 is above 83.2 µM and the IC50 was determined as 43.7 µM. `COc1ccc(Cc2nnc(Nc3ccc(Br)cc3)[nH]c2=O)cc1OC`: the EC50 is above 200 µM and the IC50 was found to be 33.9 µM.

As to `Cc1ccc(-c2c(C#N)c(-c3ccccc3)n(NS(=O)(=O)c3ccc(C)cc3)c(=O)c2C#N)cc1`, the EC50 is above 200 µM and the half-inhibitory concentration (IC50) amounted to 67.6 µM. Regarding `Clc1cc(Cl)cc(Nc2nc3ccccc3nc2-c2cccs2)c1`, the EC50 was above 10 µM and the IC50 is above 10 µM.

On to `Cc1ccc(C)n1N1CC(C)N(N=O)CC1C` (stereo not drawn), for which the EC50 was above 200 µM and the concentration for half-maximal inhibition (IC50) was above 200 µM. Turning to `C/C=C\C(O)C#Cc1cnc(OC)nc1OC` (stereo not drawn), the EC50 is above 200 µM and the IC50 came to 42.7 µM. Turning to `CC(=O)OCC1OC(OC(C)=O)C(NC#N)C(OC(C)=O)C1OC(C)=O` (stereo not drawn), the EC50 was above 676 µM and the IC50 was 61.7 µM. For the molecule `C1CNCCSCCCSCCNC1`, the EC50 was above 200 µM and the IC50 is above 200 µM. As for `C=C1NC(=O)C(CC(C(=O)C(=O)Nc2c(C)cccc2C(C)(C)C)C(=O)c2ccc3ccccc3c2)C(=O)N1` (stereo not drawn), the EC50 is above 178 µM and the IC50 was above 178 µM.

On to `O=[N+]([O-])C(=C(N1CCCCC1)N1CCCCC1)/C(Cl)=C(\Cl)Br`, for which the EC50 is above 200 µM and the half-inhibitory concentration (IC50) is 1.29 µM. The matching figures for `N#Cc1c(-c2ccco2)cc(-c2ccc(N)cc2)[nH]c1=O`: above 25.7 µM and above 25.7 µM. In the case of `Cc1cccc2[s+]snc12`, the EC50 was above 245 µM and the IC50 came out at 75.9 µM. On the same counts, the results for `N=c1c2sc3nc4ccccc4n3c2ncn1Cc1ccccc1` are above 100 µM and above 100 µM. The matching figures for `NC(=S)NNc1c([N+](=O)[O-])cnn(-c2ccccc2)c1=O`: above 58.9 µM and 0.324 µM. The matching figures for `Cc1[nH]c2c(ccc3c2ccc2c(=O)c(Cl)c(C)[nH]c23)c(=O)c1Cl`: above 200 µM and above 200 µM. For `Clc1ccc2nc3c(c(-c4ccccc4)nn3-c3ccccc3)c(-c3ccccc3)c2c1`, the EC50 was above 100 µM and the IC50 was above 100 µM. Regarding `CC(C)(C)OC(=O)NCCCCC(NC(=O)C(Cc1c[nH]c2ccccc12)NC(=O)OCC1c2ccccc2-c2ccccc21)C(=O)N1CCCC1C(=O)NCC(N)=O` (stereo not drawn) (Fmoc-WK(Boc)PG-NH2; configuration not given here), the EC50 was above 200 µM and the IC50 was above 200 µM. On to `COc1ccc(NC(=S)N/N=C(\c2ccccc2)c2ccccn2)cc1`, for which the EC50 was above 0.2 µM and the IC50 turned out to be 0.0912 µM. Consider `CC(=O)Oc1cc(C)cc2ccc(-c3ccc4cc(C)cc(OC(C)=O)c4c3OC(C)=O)c(OC(C)=O)c12`, for which the EC50 was above 200 µM and the concentration for half-maximal inhibition (IC50) is 28.8 µM. Take `CNNC1=NS(=O)(=O)c2cc(C)c(Cl)cc2S1`: the EC50 is above 200 µM and the half-maximal inhibitory concentration (IC50) is above 200 µM. For `O=C(CO[N+](=O)[O-])OCC(=O)c1ccccc1`, the result was inactive.

For the molecule `CC(C)(C)c1cc(C(C)(C)C)c2[n+]([O-])ssc1-2`, the EC50 was above 145 µM and the half-inhibitory concentration (IC50) was found to be 20.4 µM. Consider `CC(=O)Oc1ccccc1[C@H]1CC(=O)C[C@H](c2ccccc2OC(C)=O)C12C(=O)c1ccccc1C2=O`, for which the EC50 was above 200 µM and the half-inhibitory concentration (IC50) is 46.8 µM. Turning to `Cc1ccc2c(c1)nc1n2C(N)=Nc2ccccc2S1`, the EC50 was above 200 µM and the half-inhibitory concentration (IC50) is 11.5 µM. The matching figures for `N#Cc1n[nH]n(-c2ccc(Br)cc2)c1=O`: above 200 µM and above 200 µM. With `COc1ccc(-c2oc3c(OC)c(OC)cc(O)c3c(=O)c2OC)cc1`, the EC50 was above 200 µM and the IC50 is above 200 µM. As to `CC1(C)CC(=O)C2=C(C1)OC1=C(C(=O)CC(C)(C)C1)C2CC(c1ccccc1)c1ccc(O)c(O)c1O` (stereo not drawn), the EC50 is above 200 µM and the IC50 worked out at 8.51 µM.

With `CCC(CS(=O)(=O)O)[N+](=O)[O-]` (stereo not drawn), the EC50 was above 200 µM and the IC50 was above 200 µM.

As for `CC(=O)n1c2ccc(Br)cc2c2nc3ccccc3nc21`, the EC50 is above 200 µM and the IC50 is above 200 µM. Consider `Cc1ccc2c(c1)SC(c1cc3c(cc1Br)OCO3)S2` (stereo not drawn), for which the EC50 was above 50.1 µM and the half-inhibitory concentration (IC50) is above 50.1 µM.

As for `OC1CN=C2C=CC=CN2C1` (stereo not drawn), the EC50 is above 200 µM and the IC50 was above 200 µM.

Regarding `CCOP(=S)(OCC)Oc1ccc2c(C)c(Cl)c(=O)oc2c1`, the EC50 was above 37.2 µM and the IC50 is above 37.2 µM. Take `CCNC(=S)NNC(=O)C12CC3CC(CC(C3)C1)C2`: the EC50 is above 200 µM and the IC50 is above 200 µM. As for `COc1cc(OC)c2c(c1)C(=O)c1ccccc1C2=O`, the result was inactive.
